# What was measured:
# protein O-GlcNAcylation = assay: Immunoblot of protein O-GlcNAcylation after intraperitoneal 5S-GlcNHex; type: in vivo, mouse
# Procedure: Protein extracts from frozen mouse hearts, isolated cardiomyocytes, fibroblasts, endothelial cells, and HUVECs were prepared by lysis in ice-cold RIPA buffer (150 mM NaCl, 25 mM Tris-HCl pH 7.4, 1% NP-40, 1% sodium deoxycholate, 0.1% SDS) containing protease inhibitors. For analyses of O-GlcNAcylation, 200 μg/ml of PUGNAC (Sigma-Aldrich) was added to the RIPA buffer. Proteins were separated by sodium dodecyl sulfate-polyacrylamide gel electrophoresis (SDS-PAGE) on 8 or 10% polyacrylamide gels and transferred to nitrocellulose membranes. Membranes were incubated with the following primary antibodies overnight, before the addition of HRP-conjugated secondary antibodies: HK1 (2024, Cell Signaling Technology); HK2 (2867, Cell Signaling Technology); GAPDH (60004-1-Ig, Proteintech); FLAG (F1804, Sigma-Aldrich); alpha-tubulin (66031-1-Ig, Proteintech); ATP synthase C (ab181243, Abcam); Phospho-AMPKα (Thr172) (4188, Cell Signaling Technology); AMPKα (2603, Cell Signaling Technology); GFPT1 (14132-1-Ig, Proteintech); RPN1 (12894-1-AP, Proteintech); RPN2 (10576-1-AP, Proteintech); DDOST (14916-1-AP, Proteintech); GFP (66002-1-Ig, Proteintech), O-Linked N-Acetylglucosamine (ab2739, Abcam); OGT (11576-2-AP, Proteintech); OGA (66033-1-Ig, Proteintech). The presence of target protein was visualized using Super Surgical Western Pico ECL substrate (Pierce). Quantification of the western blotting images was done using ImageJ (NIH).
# [1] = tested on: C57BL/6J mice treated with HFD_L-NAME; assay: HFD_L-NAME HFpEF mouse model: echocardiography, heart weight, treadmill exercise test; type: in vivo
# Text: HKΔE1HK1/Δ^E1HK1 (ΔE1HK1) and HK1^WT/WT wild-type (WT) control mice were generated by the Northwestern Mutagenesis and Transgenic core (De Jesus et al., 2022). Briefly, guide RNAs (gRNAs) were designed to induce a double-strand break (DSB) near the 5′ ATG start codon of HK1 in exon 1, and a DNA template containing an M-DYKDDDDK (Methionine-FLAG-tag) sequence with flanking homology arms to the HK1 gene near exon 1 was introduced into fertilized zygotes and implanted into surrogate mice. […] Mouse's genetic background is C57BL/6J. Tie2-Tet-OGA mice are generous gifts from Dr. Dillmann and Dr. Makino (Makino etal., 2015). Mice were maintained in the barrier facility at Northwestern University under specific pathogen-free conditions under the Federal and University guidelines and protocols approved by Institutional Animal Care and Use Committee (IACUC) with 12 hr light and 12 hr dark cycles and received normal chow (NC). Male and female ΔE1HK1 mice were used at 8-40 weeks of age. 8-week-old ΔE1HK1 male mice were fed HFD consisting of 60% fat, 20% protein, and 20% carbohydrates for 20 weeks. To produce the HFpEF mice model, C57BL/6J and Tie2-Tet-OGA mice were fed HFD and 0.5 g/L ofN.-Nitro-L-arginine methyl ester (LNAME, Sigma-Aldrich) for 8-15 weeks. For the induction of OGA overexpression, 0.5 g/L of DOX in drinking water was administered to Tie2-Tet-OGA mice until they were sacrificed. All animal studies were approved by the IACUC at Northwestern University and were performed in accordance with guidelines from the National Institutes of Health.
# Mice were anesthetized using isoflurane via a nasal cone, the chest was shaved, and the temperature of the mice was maintained at 37° C. The heart rate was continually monitored. Transthoracic echocardiography was performed using a VisualSonics Vevo 2100 system equipped with an MS400 transducer (FUJIFILM). LVEF and other indices of systolic function and thickness of LV walls were obtained from short-axis M-mode scans at the midventricular level, as indicated by the presence of papillary muscles. Apical four-chamber views were obtained for diastolic function measurements using pulsed-wave and tissue doppler imaging at the level of the mitral valve. During echocardiogram acquisition, isoflurane was maintained in 1.0-1.5% to maintain a heart rate in the range of 400-450 beats per min. All parameters were measured at least three times, and means are presented.
# The exercise exhaustion test was performed as previously described (Schiattarella et al., 2019). After three days of acclimatization to treadmill exercise, an exhaustion test was performed in the experimental groups of mice. Mice ran uphill (20°) on the treadmill (Columbus Instruments) starting at a warm-up speed of 5 m/min for 3 min after which speed was increased to 14 m/min for 2 min. Every subsequent 2 min, the speed was increased by 2 m/min until the mouse was exhausted. Exhaustion was defined as the inability of the mouse to return to running within 10 s of direct contact with an electric-stimulus grid. Running time was measured and running distance calculated.
# OGT = biological target: T1, OGT (Mus musculus, UniProt Q8CGY8); details: Liu et al., 2018; cited from earlier work
# T1 sequence (Q8CGY8 2-1046 limits assumed): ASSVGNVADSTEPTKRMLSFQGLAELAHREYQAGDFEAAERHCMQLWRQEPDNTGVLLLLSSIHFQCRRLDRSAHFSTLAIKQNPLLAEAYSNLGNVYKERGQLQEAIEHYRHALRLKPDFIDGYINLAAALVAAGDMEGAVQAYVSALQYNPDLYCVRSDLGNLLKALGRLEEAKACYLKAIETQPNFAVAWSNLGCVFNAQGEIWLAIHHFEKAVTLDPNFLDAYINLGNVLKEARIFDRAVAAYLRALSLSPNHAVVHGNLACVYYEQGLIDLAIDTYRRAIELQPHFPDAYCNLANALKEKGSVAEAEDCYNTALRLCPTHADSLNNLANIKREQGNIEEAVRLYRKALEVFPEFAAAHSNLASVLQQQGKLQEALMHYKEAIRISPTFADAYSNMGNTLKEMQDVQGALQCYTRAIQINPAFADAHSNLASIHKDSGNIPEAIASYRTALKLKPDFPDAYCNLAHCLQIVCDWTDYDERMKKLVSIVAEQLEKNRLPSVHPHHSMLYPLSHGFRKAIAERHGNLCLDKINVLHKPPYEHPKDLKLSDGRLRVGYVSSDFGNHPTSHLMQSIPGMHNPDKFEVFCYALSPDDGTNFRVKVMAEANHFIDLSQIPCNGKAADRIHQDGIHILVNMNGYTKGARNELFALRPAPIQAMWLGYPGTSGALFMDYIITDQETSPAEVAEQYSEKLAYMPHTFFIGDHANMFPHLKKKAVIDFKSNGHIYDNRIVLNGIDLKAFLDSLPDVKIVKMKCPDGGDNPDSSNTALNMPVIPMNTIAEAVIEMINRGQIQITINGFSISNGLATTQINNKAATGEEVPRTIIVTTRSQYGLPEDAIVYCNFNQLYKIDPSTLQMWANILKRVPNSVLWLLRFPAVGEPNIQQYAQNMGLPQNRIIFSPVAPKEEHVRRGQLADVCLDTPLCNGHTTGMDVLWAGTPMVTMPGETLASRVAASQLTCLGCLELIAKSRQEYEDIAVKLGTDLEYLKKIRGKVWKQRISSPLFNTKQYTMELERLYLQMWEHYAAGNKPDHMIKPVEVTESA
# ECs from ΔE1HK1 mice = assay: Tube formation assay in isolated ECs from ΔE1HK1 mice treated with ST045849; type: cell-based, mouse; details: 20 μM, FIGS. 7H and 7I
# Procedure: Endothelial cells (ECs) were isolated from mouse hearts as previously described (Luo et al., 2016; van Beijnum et al., 2008). Briefly, dissected mouse heart was minced and incubated with PBS containing 2% fetal bovine serum (FBS), 1 mg/ml collagenase II (Worthington), and 0.6 U/ml dispase II (Sigma-Aldrich) for 30 mins at 37° C. 7.5 μg/ml of DNase I (Sigma-Aldrich) was added to the digested hearts and additional incubation for 30 minutes was performed. The digested material was filtered through 40 μm cell strainer, then incubated with biotinylated anti-CD45 antibody (Invitrogen) and depleted of CD45 positive cells using EasySep Mouse Streptavidin (STEMCELL technologies) as described in the manufacture's protocol. […]
# The formation of tube networks was assessed as described before (Das et al., 2018). […] Following an 18 hour-incubation, tube networks from each biological replicate were analyzed in at least three random fields by light microscopy. The number of branch points (junctions), segments and meshes, and total length of tubule networks (total length of branching) were quantified by Fiji software (Angiogenesis Analyzer).
# [2] = tested on: protein N-glycosylation in HUVEC; assay: Lectin blot with ConA-HRP of HUVEC treated with tunicamycin (dose-curve); type: cell-based, human; details: preliminary dose-curve experiments, FIG. 6M
# Procedure: HUVECs were purchased from Lonza and grown in EGM2 media (Lonza). HEK293T cells were purchased from ATCC and cultured in DMEM (Corning) with 10% FBS (Bio-Techne Sales Corp.). All cells were maintained in a 37° C. incubator with 5% CO2 and were 70% to 90% confluent when collected for analyses.
# Nitrocellulose membranes with blotted proteins were blocked with PBS containing 2% Tween 20 for 2 minutes at room temperature. They were rinsed with PBS twice, then incubated with 1 μg/ml of ConA-HRP (Sigma-Aldrich) in PBS containing 0.05% Tween 20, 1 mM CaCl2), 1 mM MnCl2, and 1 mM MgCl2 for 16 hours at room temperature avoiding exposure to the light. The presence of proteins conjugated with the lectin was visualized using Super Surgical Western Pico ECL substrate (Pierce). Quantification of the images was done using ImageJ (NIH).
# [3] = tested on: genes related to UPR in HUVEC; assay: mRNA levels of genes related to UPR (Xbp1s, Hspa5) in HUVEC treated with tunicamycin; type: cell-based, human; details: FIGS. 6N and 6O
# Procedure: RNA was isolated from cells or heart samples using RNA-STAT60 (Tel-Test), and reverse transcribed with Taqman Reverse Transcription Reagents (Invitrogen) according to manufacturers' instructions. Quantification of relative gene expression was done using Fast SYBR Green Master Mix (Applied Biosystems) and run on 7500 Fast Real-Time PCR system (Applied Biosystems). The relative gene expression was determined using differences in Ct values between the gene of interest and house-keeping control genes, which are Actb, Hprt1, and/or 18S, depending on the experiment.
# HUVECs = assay: Tube formation assay in HUVECs treated with tunicamycin; type: cell-based, human; details: HUVECs, 0, 30, 50, and 100 nM, FIG. 6P
# Procedure: The formation of tube networks was assessed as described before (Das et al., 2018). HUVECs and isolated ECs were seeded at 20,000 and 45,000cells per well in a 96-well plate coated with […] Matrigel (Fisher Scientific) or Cultrex (R & D Systems) reduced growth factor basement membrane matrix. The cells were treated with EGM-2 medium containing tunicamycin (Sigma-Aldrich) or ST045849 (Sigma-Aldrich) wherever mentioned. Following an 18 hour-incubation, tube networks from each biological replicate were analyzed in at least three random fields by light microscopy. The number of branch points (junctions), segments and meshes, and total length of tubule networks (total length of branching) were quantified by Fiji software (Angiogenesis Analyzer).
# [4] = isolated ECs, intraperitoneal, dose dependency study, FIG. 9A
# [5] = single intraperitoneal injection of 50 mg/kg, FIG. 9M
# [6] = 30 mg/kg every 48 hours for 10 weeks following 5 weeks of HFD_L-NAME
# [7] = 50 mg/kg for 3 weeks following 5 weeks of HFD_L-NAME
# [8] = 20 and 30 mg/kg every 48 hours for 10 weeks following 5 weeks of HFD_L-NAME
molecule,measurement,setting,value
"CCCCCC(=O)N[C@H]1C(O)S[C@H](CO)[C@@H](O)[C@@H]1O (stereo partly drawn) [5S-GlcNHex, 2-deoxy-2-N-hexanamide-5-thio-D-glucopyranoside]",dose at which reduction of protein O-GlcNAcylation reached a plateau,protein O-GlcNAcylation; [4],30 mg/kg
same,dose that initiated the reduction of protein O-GlcNAcylation,protein O-GlcNAcylation; [4],20 mg/kg
same,protein O-GlcNAcylation in various organs,"protein O-GlcNAcylation; single intraperitoneal injection of 50 mg/kg, C57BL6/J mice",effectively curtailed
same,time after which protein O-GlcNAcylation returns to baseline,protein O-GlcNAcylation; [5],72 h
same,time over which protein O-GlcNAcylation is reduced,protein O-GlcNAcylation; [5],48 h
same,protein O-GlcNAcylation in ECs in vivo,protein O-GlcNAcylation; summary statement,successfully reduces
same,increased E/A ratio,[1]; 20 mg/kg every 48 hours for 10 weeks following 5 weeks of HFD_L-NAME,reversed
same,exercise capacity (treadmill test),[1]; [6],significant improvement
same,increased E/A ratio,[1]; [6],reversed
same,EF,[1]; [7],no discernable effects
same,cardiac hypertrophy as indicated by PWTd,[1]; [7],ameliorated
same,cardiac hypertrophy as indicated by heart weights,[1]; [7],ameliorated
same,decreased e',[1]; [7],substantially restored
same,increased E/A,[1]; [7],substantially restored
same,increased E/e',[1]; [7],substantially restored
same,increased LA area,[1]; [7],substantially restored
same,HFpEF phenotype,"[1]; 50 mg/kg, FIGS. 9M-9X",reverses the HFpEF phenotype
same,EF,[1]; [8],no significant changes
same,LV diameter in systole (LVDs),[1]; [8],no significant changes
same,LVDd,[1]; [8],no significant changes
same,fraction shortening (FS),[1]; [8],no significant changes
same,increased LA sizes,[1]; [8],tendency to decrease
same,increased heart weights,[1]; [8],tendency to decrease
same,HFpEF phenotype,[1]; summary statement,reversal of the HFpEF phenotype
same,in vivo efficacy among OGT inhibitors,OGT,significant in vivo efficacy
O=C(O)C1CC(=O)N(CCC23CC4CC(CC(C4)C2)C3)C(=Nc2ccc(Cl)cc2)S1 (stereo not shown) [ST045849],tube formation: number of junctions,ECs from ΔE1HK1 mice,significant enhancement
same,tube formation: total length of branching,ECs from ΔE1HK1 mice,significant enhancement
tunicamycin,concentration at which reduced protein N-glycosylation was confirmed,[2],20 nM
same,concentration at which reduction of protein N-glycosylation reaches plateau,[2],50 nM
same,mRNA levels of genes related to UPR,[3],acted in the same manner as observed in N-glycosylation experiments
same,"tube formation (number of junctions, total length of branching)",HUVECs,no significant effects
